The supplement of paper PMC10307832

Compound: COc1cc(Nc2ncc(F)c(Nc3ccc4c(n3)NC(=O)C(C)(C)O4)n2)cc(OC)c1OC [R406] + CC(C)C[C@H](NC(=O)[C@H](Cc1ccccc1)NC(=O)c1cnccn1)B(O)O [Bortezomib] (partner 0.002 µM)
Assay: relative viability (nuclei count vs DMSO), 5 days (fraction); higher = more cells survive
Conditions: first compound 8 µM
Procedure, shortened: (§1)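 Values are medians from duplicate plates. Each reflects relative viability, defined as the nuclei count of treated wells over that of vehicle wells. Lung cancer cell lines in 1536-well plates were pin-tool dosed one day after seeding with one drug alone or with a fixed anchor-drug dose plus five library-drug doses (not always all listed) in √10 steps, then fixed, stained and imaged at 4× after 5 days.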

EKVX was tested. Which relative viability did it give?
The relative viability was 0.6.

Which relative viability does the source give for LC-2-ad here?
The relative viability was 0.133.

For NCI-H1975, which relative viability is on record?
Its relative viability is 0.178.

SK-LU-1 was tested. Which relative viability did it give?
The relative viability was 0.544.

For NCI-H661, which relative viability is on record?
Its relative viability is 0.469.

RERF-LC-KJ was tested. Which relative viability did it give?
The relative viability was 1.01.

Compound: COc1cc(Nc2ncc(F)c(Nc3ccc4c(n3)NC(=O)C(C)(C)O4)n2)cc(OC)c1OC [R406] + Nc1ncn([C@H]2C[C@H](O)[C@@H](CO)O2)c(=O)n1 [Decitabine] (partner 2 µM)
Assay: as above
Conditions: first compound 0.08 µM
Procedure, shortened: as §1

Which relative viability does the source give for NCI-H1355 here?
Its relative viability is 0.335.

How did the relative viability turn out when NCI-H3122 was run?
The relative viability was 0.368.

How did the relative viability turn out when NCI-H1437 was run?
The relative viability was 0.552.

NCI-H1755 was tested. Which relative viability did it give?
The relative viability was 0.652.

NCI-H2023 was tested. Which relative viability did it give?
Its relative viability is 0.246.

With HCC-15 as the cell line, how does the relative viability read?
Its relative viability is 0.636.

Which relative viability does the source give for PC-3 [JPC-3] here?
The relative viability was 0.912.

EKVX was tested. Which relative viability did it give?
Its relative viability is 0.341.

LC-2-ad was tested. Which relative viability did it give?
Its relative viability is 0.775.

With NCI-H1975 as the cell line, how does the relative viability read?
The relative viability was 0.368.

Which relative viability does the source give for SK-LU-1 here?
Its relative viability is 0.583.

How did the relative viability turn out when NCI-H661 was run?
Its relative viability is 0.478.

For RERF-LC-KJ, which relative viability is on record?
The relative viability was 0.706.

Same assay, conditions: first compound 0.253 µM

With NCI-H1355 as the cell line, how does the relative viability read?
The relative viability was 0.348.

NCI-H3122 was tested. Which relative viability did it give?
Its relative viability is 0.398.

With NCI-H1437 as the cell line, how does the relative viability read?
Its relative viability is 0.623.

NCI-H1755 was tested. Which relative viability did it give?
Its relative viability is 0.707.

With NCI-H2023 as the cell line, how does the relative viability read?
The relative viability was 0.254.

For HCC-15, which relative viability is on record?
Its relative viability is 0.788.

PC-3 [JPC-3] was tested. Which relative viability did it give?
Its relative viability is 0.898.

For EKVX, which relative viability is on record?
Its relative viability is 0.365.

Which relative viability does the source give for LC-2-ad here?
The relative viability was 0.776.

How did the relative viability turn out when NCI-H1975 was run?
Its relative viability is 0.401.

With SK-LU-1 as the cell line, how does the relative viability read?
The relative viability was 0.832.

NCI-H661 was tested. Which relative viability did it give?
The relative viability was 0.531.

Which relative viability does the source give for RERF-LC-KJ here?
Its relative viability is 0.628.

Same assay, conditions: first compound 0.8 µM

With NCI-H1355 as the cell line, how does the relative viability read?
The relative viability was 0.377.

With NCI-H3122 as the cell line, how does the relative viability read?
The relative viability was 0.328.

Which relative viability does the source give for NCI-H1437 here?
The relative viability was 0.567.

For NCI-H1755, which relative viability is on record?
Its relative viability is 0.676.

Which relative viability does the source give for NCI-H2023 here?
The relative viability was 0.247.

With HCC-15 as the cell line, how does the relative viability read?
Its relative viability is 0.687.

For PC-3 [JPC-3], which relative viability is on record?
The relative viability was 0.974.

For EKVX, which relative viability is on record?
Its relative viability is 0.316.

How did the relative viability turn out when LC-2-ad was run?
The relative viability was 0.797.

Which relative viability does the source give for NCI-H1975 here?
Its relative viability is 0.386.

With SK-LU-1 as the cell line, how does the relative viability read?
The relative viability was 0.728.

With NCI-H661 as the cell line, how does the relative viability read?
Its relative viability is 0.615.

With RERF-LC-KJ as the cell line, how does the relative viability read?
Its relative viability is 0.72.

Same assay, conditions: first compound 2.53 µM

For NCI-H1355, which relative viability is on record?
The relative viability was 0.345.

With NCI-H3122 as the cell line, how does the relative viability read?
Its relative viability is 0.508.

For NCI-H1437, which relative viability is on record?
Its relative viability is 0.665.

Which relative viability does the source give for NCI-H1755 here?
Its relative viability is 0.733.

With NCI-H2023 as the cell line, how does the relative viability read?
The relative viability was 0.127.

How did the relative viability turn out when HCC-15 was run?
Its relative viability is 0.603.

With PC-3 [JPC-3] as the cell line, how does the relative viability read?
The relative viability was 0.747.

Which relative viability does the source give for EKVX here?
The relative viability was 0.336.

With LC-2-ad as the cell line, how does the relative viability read?
The relative viability was 0.533.

NCI-H1975 was tested. Which relative viability did it give?
Its relative viability is 0.31.

For SK-LU-1, which relative viability is on record?
Its relative viability is 0.599.

Which relative viability does the source give for NCI-H661 here?
The relative viability was 0.473.

For RERF-LC-KJ, which relative viability is on record?
Its relative viability is 0.252.

Same assay, conditions: first compound 8 µM

With NCI-H1355 as the cell line, how does the relative viability read?
Its relative viability is 0.367.

For NCI-H3122, which relative viability is on record?
Its relative viability is 0.482.

How did the relative viability turn out when NCI-H1437 was run?
The relative viability was 0.472.

How did the relative viability turn out when NCI-H1755 was run?
The relative viability was 0.679.

For NCI-H2023, which relative viability is on record?
The relative viability was 0.195.

HCC-15 was tested. Which relative viability did it give?
The relative viability was 0.389.

PC-3 [JPC-3] was tested. Which relative viability did it give?
Its relative viability is 0.62.

Which relative viability does the source give for EKVX here?
The relative viability was 0.354.

For LC-2-ad, which relative viability is on record?
The relative viability was 0.401.

For NCI-H1975, which relative viability is on record?
Its relative viability is 0.19.

Which relative viability does the source give for SK-LU-1 here?
Its relative viability is 0.476.

With NCI-H661 as the cell line, how does the relative viability read?
Its relative viability is 0.405.

How did the relative viability turn out when RERF-LC-KJ was run?
Its relative viability is 0.529.

Compound: O=C(/C=C/c1cccnc1)NCCCCC1CCN(C(=O)c2ccccc2)CC1 [Daporinad] + C[C@@H](Oc1cc(-c2cnn(C3CCNCC3)c2)cnc1N)c1c(Cl)ccc(F)c1Cl [Crizotinib] (partner 1 µM)
Assay: as above
Conditions: first compound 0.0005 µM
Procedure, shortened: as §1

For NCI-H1355, which relative viability is on record?
The relative viability was 1.08.

Which relative viability does the source give for NCI-H3122 here?
The relative viability was 0.237.

With NCI-H1437 as the cell line, how does the relative viability read?
Its relative viability is 0.795.

For NCI-H1755, which relative viability is on record?
Its relative viability is 0.83.

For NCI-H2023, which relative viability is on record?
Its relative viability is 0.612.

For HCC-15, which relative viability is on record?
Its relative viability is 0.785.

How did the relative viability turn out when PC-3 [JPC-3] was run?
Its relative viability is 1.

EKVX was tested. Which relative viability did it give?
Its relative viability is 0.891.

Which relative viability does the source give for LC-2-ad here?
The relative viability was 0.501.

Which relative viability does the source give for NCI-H1975 here?
The relative viability was 0.996.

Which relative viability does the source give for SK-LU-1 here?
The relative viability was 0.942.

How did the relative viability turn out when NCI-H661 was run?
The relative viability was 0.975.

For RERF-LC-KJ, which relative viability is on record?
Its relative viability is 0.787.

Same assay, conditions: first compound 0.001581 µM

NCI-H1355 was tested. Which relative viability did it give?
The relative viability was 1.1.

With NCI-H3122 as the cell line, how does the relative viability read?
The relative viability was 0.29.

How did the relative viability turn out when NCI-H1437 was run?
The relative viability was 0.956.

How did the relative viability turn out when NCI-H1755 was run?
Its relative viability is 0.859.

How did the relative viability turn out when NCI-H2023 was run?
The relative viability was 0.595.

How did the relative viability turn out when HCC-15 was run?
The relative viability was 0.853.

For PC-3 [JPC-3], which relative viability is on record?
Its relative viability is 1.02.

How did the relative viability turn out when EKVX was run?
The relative viability was 1.01.

With LC-2-ad as the cell line, how does the relative viability read?
The relative viability was 0.513.

How did the relative viability turn out when NCI-H1975 was run?
Its relative viability is 0.899.

With SK-LU-1 as the cell line, how does the relative viability read?
The relative viability was 0.958.

For NCI-H661, which relative viability is on record?
The relative viability was 0.998.

For RERF-LC-KJ, which relative viability is on record?
The relative viability was 0.861.

Same assay, conditions: first compound 0.005 µM

With NCI-H1355 as the cell line, how does the relative viability read?
Its relative viability is 1.22.

How did the relative viability turn out when NCI-H3122 was run?
Its relative viability is 0.261.

Which relative viability does the source give for NCI-H1437 here?
Its relative viability is 1.02.

With NCI-H1755 as the cell line, how does the relative viability read?
Its relative viability is 0.919.

How did the relative viability turn out when NCI-H2023 was run?
Its relative viability is 0.631.

How did the relative viability turn out when HCC-15 was run?
The relative viability was 0.907.

How did the relative viability turn out when PC-3 [JPC-3] was run?
The relative viability was 1.11.

For EKVX, which relative viability is on record?
The relative viability was 1.01.

LC-2-ad was tested. Which relative viability did it give?
Its relative viability is 0.491.

With NCI-H1975 as the cell line, how does the relative viability read?
Its relative viability is 1.12.

For SK-LU-1, which relative viability is on record?
The relative viability was 1.18.

With NCI-H661 as the cell line, how does the relative viability read?
Its relative viability is 1.04.

For RERF-LC-KJ, which relative viability is on record?
The relative viability was 1.06.

Same assay, conditions: first compound 0.01581 µM

Which relative viability does the source give for NCI-H1355 here?
The relative viability was 1.1.

NCI-H3122 was tested. Which relative viability did it give?
The relative viability was 0.238.

With NCI-H1437 as the cell line, how does the relative viability read?
Its relative viability is 0.855.

NCI-H1755 was tested. Which relative viability did it give?
The relative viability was 0.843.

How did the relative viability turn out when NCI-H2023 was run?
Its relative viability is 0.59.

With HCC-15 as the cell line, how does the relative viability read?
Its relative viability is 0.831.

With PC-3 [JPC-3] as the cell line, how does the relative viability read?
Its relative viability is 1.01.

EKVX was tested. Which relative viability did it give?
The relative viability was 0.993.

With LC-2-ad as the cell line, how does the relative viability read?
The relative viability was 0.46.

NCI-H1975 was tested. Which relative viability did it give?
The relative viability was 0.881.

Which relative viability does the source give for SK-LU-1 here?
Its relative viability is 0.892.

How did the relative viability turn out when NCI-H661 was run?
Its relative viability is 0.52.

How did the relative viability turn out when RERF-LC-KJ was run?
Its relative viability is 0.803.
